Key:
[1] = format: physicochemical
Description: S-nitrosoglutathione (GSNO, Cayman) and sodium phenylsulfinate (Sigma-Aldrich) were used for rate-determination studies at four pH values: pH 1.0 (0.2 N HCl/KCl buffer), pH 4.0 (0.1 M Sodium acetate/Acetic Acid buffer), pH 7.0 (0.1 M potassium phosphate buffer) and pH 10.0 (0.1 M Sodium bicarbonate/Sodium hydroxide buffer). The purity of S-nitrosoglutathione was calculated as 94±1.3% by absorbance at 334 nm using the molar extinction coefficient of 900 M^−1 cm^−1. Assays were performed using a plate reader (Tecan Infinite F500) monitoring absorbance of 2 mM GSNO at 340 nm over a course of 90 minutes in the presence of varying concentrations of sodium phenylsulfinate. Additional experiments confirmed thiosulfonate stability for >5 hours at pH 1, 4, and 7, but hydrolysis at pH 10. GSNO was stable in 6 M urea/PBS for >1 hour. Absorbance data was imported into KaleidaGraph (version 4.02, Synergy Software), and logarithmically fit to the first order exponential decay. The Kobs was calculated for each phenylsulfinic acid concentration, and plotted to calculate the rate constant for the overall reaction.

[2] = molecular target: T1, human DJ-1 (Cys106-SO2H) (Homo sapiens, UniProt Q99497); assay: LC-MS analysis of DJ-1 conjugation with an S-nitrosothiol; format: biochemical; conditions: after iodoacetamide alkylation
T1 construct: 6His; made in house; host or cells: E. coli BL21
T1 sequence (Q99497 1-189): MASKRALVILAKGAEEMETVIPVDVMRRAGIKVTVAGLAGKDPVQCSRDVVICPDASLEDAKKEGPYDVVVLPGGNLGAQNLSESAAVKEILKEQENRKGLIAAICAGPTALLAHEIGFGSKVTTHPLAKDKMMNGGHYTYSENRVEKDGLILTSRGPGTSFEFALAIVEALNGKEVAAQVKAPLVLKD
Source text: (§1) FIG. 20A-C. S-nitrosothiol probes detect endogenous S-sulfinylation. (a) Direct conjugation of human DJ-1 (Cys106-SO2H) with N-acetyl-S-nitrosocysteine methyl ester. (b) MS/MS assignment of product ions from the S-sulfinylated peptide of human DJ-1, confirming direct thiosulfonate formation. (c) Gel-based analysis of S-sulfinylation in mammalian lysates with biotin-GSNO. Lysates are denatured and pre-alkylated with iodoacetamide.
It was next asked what would happen if the detection scheme was reversed, using S-nitrosothiol-linked probes to detect endogenous S-sulfinylation. Similar reactivity was recently reported using aryl-nitroso ligation to several sulfinic acid standards, including glutathione, to form a stable N-sulfonylbenzisoxazolone (see, e.g., Lo Conte, M. & Carroll, K. S. Angew Chem Int Ed Engl 51, 6502-5 (2012)). Despite such progress, there are no reported methods to selectively profile endogenous S-sulfinylation in complex proteomes. […]
Purified human GAPDH was diluted to 0.2 mg/mL in phosphate buffered saline (pH 7.3), and treated with 20 mM iodoacetamide for 30 minutes. […] Eluted peptides were analyzed using a Waters Synapt G2-S HDMS time-of-flight mass spectrometer in positive mode. […] MS data was searched using Waters Protein Lynx Global Server v3.0 using the exact mass calculated for the cysteine thiosulfonate modification.

[3] = tested on: S-sulfinylated proteins in mammalian lysates; assay: Gel-based analysis of S-sulfinylation with biotin-GSNO; format: biochemical; conditions: lysates in 6 M urea/PBS, pre-alkylated with iodoacetamide
Source text: as §1
It was next asked what would happen if the detection scheme was reversed, using S-nitrosothiol-linked probes to detect endogenous S-sulfinylation. Similar reactivity was recently reported using aryl-nitroso ligation to several sulfinic acid standards, including glutathione, to form a stable N-sulfonylbenzisoxazolone (see, e.g., Lo Conte, M. & Carroll, K. S. Angew Chem Int Ed Engl 51, 6502-5 (2012)). Despite such progress, there are no reported methods to selectively profile endogenous S-sulfinylation in complex proteomes. In order to test this approach, recombinant human DJ-1 was purified, a redox chaperone that spontaneously forms a stable sulfinic acid at Cys106 (see, e.g., Canet-Aviles, R. M. et al. Proc Natl Acad Sci USA 101, 9103-8 (2004)). After iodoacetamide alkylation of free thiols, N-acetyl-S-nitrosocysteine methyl ester was added to DJ-1, and processed for high-resolution LC-MS analysis (FIG. 20A and FIG. 21)). […]

In the case of `N[C@@H](CCC(=O)N[C@@H](CSN=O)C(=O)NCC(=O)O)C(=O)O` [GSNO, S-nitrosoglutathione, reference compound], the stability [1] is reported as over 1 h.

For `COC(=O)[C@H](CSN=O)NC(C)=O` [N-acetyl-S-nitrosocysteine methyl ester, (R)-methyl 2-acetamido-3-(nitrosothio)propanoate], the “thiosulfonate formation with DJ-1” value [2] was “confirmed thiosulfonate formation at Cys106-SO2H”.

For `O=NSC[C@H](NC(=O)CCC(NC(=O)CCCC[C@@H]1SC[C@@H]2NC(=O)N[C@@H]21)C(=O)O)C(=O)NCC(=O)O` (stereo partly drawn) [biotin-GSNO, 5-(((R)-1-((carboxymethyl)amino)-3-(nitrosothio)-1-oxopropan-2-yl)amino)-5-oxo-2-(5-((3aS,4S,6aR)-2-oxohexahydro-1H-thieno[3,4-d]imidazol-4-yl)pentanamido)pentanoic Acid], the “labeling of S-sulfinylated proteins” value [3] was “distinct profile of putative S-sulfinylated proteins”.

— patent US10408843B2, “Compositions and methods for detecting S-nitrosylation and S-sulfinylation” (The Regents of the University of Michigan, priority 2013, dated 2019)
